The values that follow come from publication PMC4424558, “Antimicrobial and antioxidant flavonoids from the leaves of Oncoba spinosa Forssk. (Salicaceae)” (BMC Complementary and Alternative Medicine, 2015).

Test [1] relates to Klebsiella pneumoniae ATCC11296. Briefly: Broth microdilution MIC/MBC against Klebsiella pneumoniae ATCC11296. Type of test: cell-based. The protocol:
(§1) The studied microorganisms were both reference (from the American Type Culture Collection) and clinical (from Pasteur Institute Paris, France) strains of Enterobacter aerogenes, Escherichia coli, Klebsiella pneumoniae, Candida albicans, and Cryptococcus neoformans. Also, included were two clinical isolates of Candida parapsilosis and Staphylococcus aureus collected from Pasteur Centre (Yaoundé-Cameroon). The bacterial and fungal species were grown at 37°C and maintained on nutrient agar (NA, Conda, Madrid, Spain) and Sabouraud Dextrose Agar (SDA, Conda) slants respectively.
(§2) The inocula of yeasts and bacteria were prepared from overnight cultures by picking numerous colonies and suspending them in sterile saline (NaCl) solution (0.90%). Absorbance was read at 530 nm for yeasts or at 600 nm for bacteria and adjusted with the saline solution to match that of a 0.50 McFarland standard solution. From the prepared microbial solutions, other dilutions with saline solution were prepared to give a final concentration of 10^6 yeast cells/ml and 10^6 CFU/ml for bacteria.
(§3) The antimicrobial activity was investigated by determining the minimum inhibitory concentrations (MICs), minimum bactericidal concentrations (MBCs) and minimum fungicidal concentrations (MFCs).
(§4) MICs were determined by broth micro dilution. Stock solutions of the tested samples were prepared in 10% v/v aqueous dimethylsulfoxide (DMSO) solution (Fisher chemicals, Strasbourg, France) at concentration of 4096 μg/ml. This was two-fold serially diluted in Mueller-Hinton Broth (MHB) for bacteria and Sabouraud Dextrose Broth (SDB) for fungi to obtain a concentration range of 2048 to 0.25 μg/ml. For every experiment, a sterility check (10% aqueous DMSO and medium), negative control (10% aqueous DMSO, medium and inoculum) and positive control (10% aqueous DMSO, medium, inoculum and water-soluble antibiotics) were included. One hundred microliters of each concentration was introduced into a well (96-wells microplate) containing 90 μl of SDB or MHB and 10 μl of inoculum was added to obtain a final concentration range of 4096 to 0.125 μg/ml. The plates were covered with a sterile lid, and incubated on the shaker at 37°C for 24 h (bacteria) and 48 h (yeasts). MICs were assessed visually after the corresponding incubation period and were taken as the lowest sample concentration at which there was no growth or virtually no growth. The assay was repeated thrice.
(§5) The lowest concentration that yielded no growth after the sub-culturing was taken as the MBCs or MFCs. Chloramphenicol (Sigma-Aldrich, Steinheim, Germany) for bacteria and nystatin (Sigma-Aldrich, Steinheim, Germany) for yeasts were used as positive controls.
On the technique in general: Broth dilution looks for growth in wells or tubes with falling amounts of substance.

The nature of test [2]: Trolox equivalent antioxidant capacity (TEAC) assay. Format: biochemical. Conditions: ABTS/laccase, 420 nm, 230 s; 20 μg/ml isolated compounds, 10-400 μg/ml MeOH extract; gallic acid equivalents. The protocol:
The TEAC test was done as previously described with slight modifications. In a quartz cuvette, to 950 μl acetate buffer (pH = 5.0, 100 mM), the following were added: 20 μl laccase (1 mM stock solution), 20 μl test sample, 10 μl ABTS (2,2′-azinobis(3-ethylbenzothiazoline-6-sulfonic acid)) (74 mM stock solution). The laccase were purified from Sclerotinia sclerotiorum according to the protocol described. The sample concentrations in the assay mixture were 400, 200, 100, 10 μg/ml for the MeOH extract and 20 μg/ml for the isolated compounds. The content of the generated ABTS^●+ radical was measured at 420 nm after 230 s reaction time and was converted to gallic acid equivalents by the use of a calibration curve (Pearson’s correlation coefficient: r = 0.998) constructed with 0, 4, 10, 14, 28, 56, 84 μM gallic acid standards rather than Trolox. Experiments were done in triplicate.

Test [3] deals with Escherichia coli ATCC8739. The test can be described thus: Broth microdilution MIC/MBC against Escherichia coli ATCC8739. Type of test: cell-based. The protocol:
as §1, §2, §3, §4, §5

A short description of test [4]: DPPH free radical scavenging assay. Format: biochemical. Conditions: 30 min, room temperature, 517 nm. The protocol:
The free radical scavenging activity of the MeOH extract as well as some of its isolated compounds was evaluated according to described methods with slight modifications. Briefly, the test samples, prior dissolved in DMSO (SIGMA) beforehand, were mixed with a 20 mg/l 2,2-diphenyl-1-picryl-hydrazyl (DPPH) methanol solution, to give final concentrations of 10, 50, 100, 500 and 1000 μg/ml. After 30 min at room temperature, the absorbance values were measured at 517 nm and converted into percentage of antioxidant activity. L-ascorbic acid was used as a standard control. The percentage of decolouration of DPPH (%) was calculated as follows: %decolourationofDPPH=Absorbanceofcontrol−Absorbanceoftestsample)×100/Absorbanceofcontrol
The percentage of decolouration of DPPH (%) was plotted against the test sample. Also, the percentage of decolouration of DPPH was converted in probits. The probit values were plotted against the logarithmic values of concentrations of the test samples and a linear regression curve was established in order to calculate the EC50 (μg/ml), which is the amount of sample necessary to decrease by 50% the absorbance of DPPH [11]. All the analyses were carried out in triplicate.
(In general: Loss of DPPH colour is used to gauge radical scavenging.)

A further test relates to fungi. The test can be described thus: Broth microdilution, fungal strains (panel summary). Format: cell-based. Conditions: fungal strains. As for the experimental part:
as §1, §2, §3
as §4, with “One hundred microliters of each concentration was introduced into a well (96-wells microplate) containing 90 μl of SDB or MHB and 10 μl of inoculum was added to obtain a final concentration range of 4096 to 0.125 μg/ml. The plates were covered with a sterile lid, and incubated on the shaker at 37°C for 24 h (bacteria) and 48 h (yeasts).” left out, “The assay was repeated thrice.” left out

The test system of a further test is Staphylococcus aureus. Briefly: Broth microdilution MIC/MBC against Staphylococcus aureus. Type of test: cell-based. Conditions: Staphylococcus aureus clinical isolate. The protocol: as §1, §2, §3, §4, §5
For another test, the system named is Candida parapsilosis. The test can be described thus: Broth microdilution MIC/MFC against Candida parapsilosis. Format: cell-based. Conditions: Lodderomyces parapsilosis; Candida parapsilosis clinical isolate; 37°C, 48 h; read-out: MIC. As for the experimental part:
as §1, §2, §3, §4, §5

For test [5], the system named is Cryptococcus neoformans IP 90526. Briefly: Broth microdilution MIC/MFC against Cryptococcus neoformans IP 90526. Conditions: IP90526, 37°C, 48 h, read-out: MIC. Type of test: cell-based. As for the experimental part: as §1, §2, §3, §4, §5
In test [6] the test system is Candida albicans ATCC 9002. The test can be described thus: Broth microdilution MIC/MFC against Candida albicans ATCC 9002. Format: cell-based. Conditions: ATCC9002, 37°C, 48 h, read-out: MIC. The protocol: as §1, §2, §3, §4, §5
The subject of test [7] is bacterial and fungal species. The test can be described thus: Broth microdilution, all studied microorganisms (panel summary). Type of test: cell-based. Conditions: out of 7 studied microorganisms. As for the experimental part: as §1, §2, §3, §4, §5
A further test concerns bacteria. Briefly: Broth microdilution, bacterial strains (panel summary). Type of test: cell-based. Conditions: range over the bacterial strains. As for the experimental part:
as §1
The inocula of yeasts and bacteria were prepared from overnight cultures by picking numerous colonies and suspending them in sterile saline (NaCl) solution (0.90%). Absorbance was read at 530 nm for yeasts or at 600 nm for bacteria and adjusted with the saline solution to match that of a 0.50 McFarland standard solution. From the prepared microbial solutions, other dilutions with saline solution were prepared to give a final concentration of 10^6 yeast cells/ml and 10^6 CFU/ml for bacteria. […]
MICs were determined by broth micro dilution. […] MICs were assessed visually after the corresponding incubation period and were taken as the lowest sample concentration at which there was no growth or virtually no growth. […]

For test [8], the system named is Enterobacter aerogenes ATCC13048. The test can be described thus: Broth microdilution MIC/MBC against Enterobacter aerogenes ATCC13048. Format: cell-based. As for the experimental part:
as §1, §2, §3, §4, §5

≈ marks a conversion by molar mass, not a printed value.

Turning to `C[C@@H]1O[C@@H](OC[C@H]2O[C@@H](Oc3c(-c4ccc(O)c(O)c4)oc4cc(O)cc(O)c4c3=O)[C@H](O)[C@@H](O)[C@@H]2O)[C@H](O)[C@H](O)[C@H]1O` [Compound 5, quercetin 3-O-α-L-rhamnopyranosyl (1 → 6) β-D-glucopyranoside], the minimum bactericidal concentration (MBC) (in general, the lowest tested concentration that kills the bacteria rather than only halting them) is 16 µg/mL (≈ 26.2 µM) in test [1], 64 µg/mL (≈ 105 µM) in test [3], 128 µg/mL (≈ 210 µM) with Staphylococcus aureus and 32 µg/mL (≈ 52.4 µM) in [8] (Klebsiella aerogenes). Besides, the MBC/MIC is listed as 2 in test [1], 1 in [3], 2 against Staphylococcus aureus and 1 in test [8]. Further, the minimum inhibitory concentration (MIC) (commonly the smallest concentration in the dilution series that meets the test's criterion for growth inhibition) was 8 µg/mL (≈ 13.1 µM) in test [1] (37°C, 24 h); 64 µg/mL (≈ 105 µM) in [3] (37°C, 24 h); 64 µg/mL (≈ 105 µM) in the test with Staphylococcus aureus (37°C, 24 h); greater than 256 µg/mL with Candida parapsilosis; greater than 256 µg/mL in [5]; greater than 256 µg/mL in test [6]. Further, the MIC in test [8] (Klebsiella aerogenes, 37°C, 24 h) amounted to 32 µg/mL (≈ 52.4 µM). Also, in test [2], the “Gallic acid equivalent antioxidant capacity (TEAC)” value came out at 78.35 µg/mL. In test [4], the “EC50, concentration scavenging 50% of DPPH radical” value stood at 9.63 µg/mL. The “activity against fungal/yeast strains (in words)” value in the test on fungi is “inactive”. Besides, in test [7], the “studied microorganisms on which inhibitory effects were noted” value was 4/7. The “MIC (range over bacteria)” value with bacteria was in the range of 8 to 64 µg/mL.
